Converted amounts (≈) assume the structure as drawn. The source made the active and inactive calls. The calls are words filed in the database; no cut-off is given here.
Key:
[1] = Effect on tau protein level in mouse HT22 cells transfected with pRK5-GFP-Tau plasmid assessed as fluorescence intensity at 10 uM by fluorescence microscopy (Rvb <= 40.9); type: functional, HT-22
[2] = Effect on tau protein level in mouse HT22 cells transfected with pRK5-GFP-Tau plasmid assessed as fluorescence intensity at 2.5 uM by fluorescence microscopy (Rvb <= 40.9); type: functional, HT-22
[3] = Cytotoxicity against mouse HT22 cells assessed as cell viability at 80 uM by MTT assay relative to control; type: cell-based, HT-22; details: read-out: Activity
HT-22 [4] = assay: Cytotoxicity against mouse HT22 cells assessed as effect on cell viability at 10 uM by MTT assay; type: cell-based; details: ht-22, 10 µM
[5] = biological target: Amyloid-beta precursor protein (Homo sapiens) (UniProt P05067); assay: Inhibition of self-induced Amyloid beta (1 to 42 residues) (unknown origin) aggregation at 25 uM measured after 24 hrs by thioflavin T-based fluorimetric assay relative to control
Homo sapiens = organism: Homo sapiens; assay: Selectivity index, ratio of IC50 for recombinant human MAO-A to IC50 for recombinant human MAO-B
[6] = biological target: T1, Amine oxidase [flavin-containing] B (Homo sapiens, UniProt P27338); assay: Inhibition of recombinant human MAO-B
T1 sequence (P27338 whole entry): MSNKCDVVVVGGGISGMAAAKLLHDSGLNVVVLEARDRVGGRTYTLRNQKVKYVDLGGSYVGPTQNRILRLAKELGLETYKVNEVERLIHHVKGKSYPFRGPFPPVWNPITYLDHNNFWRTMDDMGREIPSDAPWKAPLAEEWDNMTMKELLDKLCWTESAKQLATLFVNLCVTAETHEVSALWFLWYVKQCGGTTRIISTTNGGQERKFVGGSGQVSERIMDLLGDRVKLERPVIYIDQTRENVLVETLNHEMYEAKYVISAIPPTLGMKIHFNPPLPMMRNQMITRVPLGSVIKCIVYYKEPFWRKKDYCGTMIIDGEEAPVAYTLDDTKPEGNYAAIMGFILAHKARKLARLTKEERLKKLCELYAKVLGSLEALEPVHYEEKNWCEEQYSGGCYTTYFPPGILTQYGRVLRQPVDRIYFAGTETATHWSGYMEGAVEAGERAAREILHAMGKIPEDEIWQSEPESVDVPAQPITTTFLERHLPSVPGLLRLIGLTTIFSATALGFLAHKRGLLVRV

Cholinesterase [7] = biological target: T2, Cholinesterase (Homo sapiens, UniProt P06276); assay: Pseudo-irreversible inhibition of human serum BuChE assessed as residual activity at 0.1 times IC50 using acetylcholine iodide as substrate measured 240 mins post dilution by Ellman's method relative to control
Cholinesterase [8] = biological target: T2, Cholinesterase; assay: Inhibition of human serum BuChE assessed as residual activity at IC50 using acetylcholine iodide as substrate measured by Ellman's method relative to control
Cholinesterase [9] = biological target: T2, Cholinesterase; assay: Inhibition of human serum BuChE using acetylcholine iodide as substrate incubated for 15 mins by Ellman's method
Cholinesterase [10] = biological target: Cholinesterase (Equus caballus, UniProt P81908); assay: Inhibition of equine serum BuChE using BTC as substrate after 15 mins by Ellman's method
[11] = Acute toxicity in Kunming mouse assessed as damage in kidney at 50 to 1000 mg/kg measured after 7 days; type: organism-based; details: in vivo, 168 h, dose 50-1000 mg/kg, time 7 day
[12] = Acute toxicity in Kunming mouse assessed as damage in heart at 50 to 1000 mg/kg measured after 7 days; type: organism-based; details: in vivo, 168 h, dose 50-1000 mg/kg, time 7 day
HT-22 [13] = assay: Effect on tau protein level in mouse HT22 cells transfected with pRK5-GFP-Tau P301L plasmid assessed as reduction in fluorescence intensity by fluorescence microscopy; type: functional, cell-based
HT-22 [14] = assay: Down regulation of tau protein expression in mouse HT22 cells transfected with pRK5-GFP-Tau P301L plasmid at 2.5 to 20 uM by Western blot analysis; type: functional, cell-based; details: dose 2.5-20 µM
[15] = Effect on APP protein level in mouse HT22 cells transfected with pEGFP-N1-APP plasmid assessed as fluorescence intensity at 2.5 uM by fluorescence microscopy (reference value: 33.2); type: functional, HT-22
[16] = Effect on APP protein level in mouse HT22 cells transfected with pEGFP-N1-APP plasmid assessed as fluorescence intensity at 20 uM by fluorescence microscopy (reference value: 33.2); type: functional, HT-22
HT-22 [17] = assay: Down regulation of APP protein expression in mouse HT22 cells transfected with pEGFP-N1-APP plasmid at 10 to 20 uM by Western blot analysis; type: functional, cell-based; details: dose 10-20 µM
[18] = Toxicity in Zebrafish; set-up: species or system Danio rerio; details: in vivo
[19] = Toxicity in Zebrafish assessed as mortality at 100 ug/ml relative to control; set-up: species or system Danio rerio; details: in vivo, at 100 µg/mL
[20] = Toxicity in Zebrafish assessed as induction of yolk sac absorption delay at 3.125 ug/ml relative to control; set-up: species or system Danio rerio; details: in vivo, at 3.125 µg/mL
[21] = Toxicity in AlCl3-induced Zebrafish model of Alzheimer's disease assessed as mortality at 2.5 ug/ml relative to control; set-up: species or system Danio rerio; details: in vivo, at 2.5 µg/mL
[22] = Toxicity in AlCl3-induced Zebrafish model of Alzheimer's disease assessed as mortality at 25 ug/ml relative to control; set-up: species or system Danio rerio; details: in vivo, at 25 µg/mL
Danio rerio [23] = organism: Danio rerio; assay: Antialzheimer activity in AlCl3-induced Zebrafish model of Alzheimer's disease assessed as motility distance at 0.33 ug/ml (reference value: 5346 mm); type: functional; details: dose 0.33 µg/ml
Danio rerio [24] = organism: Danio rerio; assay: Antialzheimer activity in AlCl3-induced Zebrafish model of Alzheimer's disease assessed as increase in motility speed at 0.33 ug/ml relative to control; type: functional; details: dose 0.33 µg/ml
Danio rerio [25] = organism: Danio rerio; assay: Protection against amyloid beta (1 to 42)-induced zebrafish model of vascular injury assessed as reduction in injury rate; type: functional, organism-based
Danio rerio [26] = organism: Danio rerio; assay: Protection against amyloid beta (1 to 42)-induced zebrafish model of vascular injury assessed as vascular injury rate at 1 ug/ml (reference value: 73.3%); type: functional; details: dose 1 µg/ml
Danio rerio [27] = organism: Danio rerio; assay: Protection against amyloid beta (1 to 42)-induced zebrafish model of vascular injury assessed as reduction in vascular injury at […] relative to control; type: functional; details: dose 0.11 µg/ml
[28] = Acute toxicity in Kunming mouse assessed as dyspnea at 250 to 1000 mg/kg; type: organism-based; details: in vivo, dose 250-1000 mg/kg
[29] = Acute toxicity in Kunming mouse assessed as hypokinesia at 250 to 1000 mg/kg; type: organism-based; details: in vivo, dose 250-1000 mg/kg
Mus musculus [30] = assay: Improvement in brain cholinergic activity in scopolamine-induced mouse model of amnesia assessed as change in AChE vitality at 20 mg/kg (reference value: 0.105 U/mg); type: functional
Mus musculus [31] = assay: Improvement in brain cholinergic activity in scopolamine-induced mouse model of amnesia assessed as change in AChE vitality at 6 mg/kg (reference value: 0.105 U/mg); type: functional
[32] = Drug metabolism in human liver microsomes by HPLC analysis; type: ADME, Microsome

T2 sequence (P06276 whole entry): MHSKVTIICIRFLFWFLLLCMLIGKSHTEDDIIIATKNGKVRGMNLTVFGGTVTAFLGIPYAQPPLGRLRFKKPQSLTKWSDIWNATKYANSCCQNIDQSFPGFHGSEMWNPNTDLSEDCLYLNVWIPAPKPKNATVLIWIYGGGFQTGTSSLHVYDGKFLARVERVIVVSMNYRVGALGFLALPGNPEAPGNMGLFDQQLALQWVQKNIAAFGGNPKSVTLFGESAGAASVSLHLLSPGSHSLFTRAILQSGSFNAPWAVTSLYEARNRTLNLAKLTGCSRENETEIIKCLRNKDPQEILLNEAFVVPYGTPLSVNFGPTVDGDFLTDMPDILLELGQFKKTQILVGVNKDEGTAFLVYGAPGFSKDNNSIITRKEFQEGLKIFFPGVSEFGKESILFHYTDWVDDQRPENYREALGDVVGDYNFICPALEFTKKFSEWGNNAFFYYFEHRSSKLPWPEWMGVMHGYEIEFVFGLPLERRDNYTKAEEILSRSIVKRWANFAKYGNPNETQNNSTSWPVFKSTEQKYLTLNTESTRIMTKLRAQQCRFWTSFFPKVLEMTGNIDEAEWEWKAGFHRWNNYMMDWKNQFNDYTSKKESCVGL
Chain of Cholinesterase (Equus caballus, UniProt P81908) (P81908 whole entry): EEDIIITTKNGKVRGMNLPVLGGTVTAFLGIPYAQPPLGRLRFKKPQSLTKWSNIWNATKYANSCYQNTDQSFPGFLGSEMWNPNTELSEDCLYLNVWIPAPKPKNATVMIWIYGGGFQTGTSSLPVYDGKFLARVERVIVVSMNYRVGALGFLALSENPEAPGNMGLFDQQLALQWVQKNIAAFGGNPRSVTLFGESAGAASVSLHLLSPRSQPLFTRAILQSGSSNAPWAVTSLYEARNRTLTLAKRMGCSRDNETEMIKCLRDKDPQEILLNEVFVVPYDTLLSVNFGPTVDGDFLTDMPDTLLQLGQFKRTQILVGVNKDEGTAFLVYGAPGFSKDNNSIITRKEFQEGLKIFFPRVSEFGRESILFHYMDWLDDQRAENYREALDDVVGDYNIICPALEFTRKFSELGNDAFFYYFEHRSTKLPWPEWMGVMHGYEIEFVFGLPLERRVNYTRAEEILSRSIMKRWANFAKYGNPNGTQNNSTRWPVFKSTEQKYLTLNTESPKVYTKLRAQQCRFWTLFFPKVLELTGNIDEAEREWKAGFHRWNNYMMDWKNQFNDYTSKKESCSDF
Chain of Amyloid-beta precursor protein (Homo sapiens) (P05067 whole entry, the tested form may be a part): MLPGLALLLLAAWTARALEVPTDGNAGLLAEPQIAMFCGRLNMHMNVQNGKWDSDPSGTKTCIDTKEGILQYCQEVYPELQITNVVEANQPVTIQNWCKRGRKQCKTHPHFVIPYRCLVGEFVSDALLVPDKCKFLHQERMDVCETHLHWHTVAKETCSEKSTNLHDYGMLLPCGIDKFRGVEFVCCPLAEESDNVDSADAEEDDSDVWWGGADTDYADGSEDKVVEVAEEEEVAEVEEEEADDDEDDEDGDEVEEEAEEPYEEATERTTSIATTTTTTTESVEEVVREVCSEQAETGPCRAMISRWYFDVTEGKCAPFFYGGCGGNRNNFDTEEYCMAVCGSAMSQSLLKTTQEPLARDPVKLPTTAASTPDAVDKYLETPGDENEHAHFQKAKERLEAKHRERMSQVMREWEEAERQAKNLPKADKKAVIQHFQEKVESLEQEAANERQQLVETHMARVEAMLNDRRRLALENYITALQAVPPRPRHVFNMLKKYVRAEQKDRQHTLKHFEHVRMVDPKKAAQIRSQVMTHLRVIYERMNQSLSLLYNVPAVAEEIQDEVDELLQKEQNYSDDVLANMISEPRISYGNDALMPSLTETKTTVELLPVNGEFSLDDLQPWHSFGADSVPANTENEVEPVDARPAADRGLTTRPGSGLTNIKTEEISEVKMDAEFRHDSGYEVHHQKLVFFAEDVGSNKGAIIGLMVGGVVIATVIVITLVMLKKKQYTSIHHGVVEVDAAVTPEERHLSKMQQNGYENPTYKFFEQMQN

SMILES: CCN(C)C(=O)Oc1ccc(/C=C/C(=O)N2CCc3ccccc3C2)cc1OC
- Flu intensity [1]: 33.3
- Flu intensity [2]: 32.6
- viability at 80 µM [3]: 8.4%
- Activity (HT-22 [4]): Non-Toxic
- inhibition [5]: 58.2%
- Ratio IC50 (Homo sapiens): 3
- IC50 [6]: 5300 nM
- Activity (Cholinesterase [7]): 66.2%
- Activity (Cholinesterase [8]): 53.2%
- IC50 (Cholinesterase [9]): 970 nM
- IC50 (Cholinesterase [10]): 920 nM
- Activity [11]: Non-Toxic
- Activity [12]: Non-Toxic
- Activity (HT-22 [13]): Dose-dependent effect
- Activity (HT-22 [14]): Active
- Flu intensity [15]: 29.8
- Flu intensity [16]: 14.9
- Activity (HT-22 [17]): Active
- LC10 [18]: 6.25 µg/mL (≈ 15.8 µM)
- MNTC ([18]; read-out: MNCC): 3.12 µg/mL
- mortality at 100 ug/ml [19]: 100%
- Activity [20]: 40%
- mortality at 2.5 ug/ml [21]: 0%
- mortality at 25 ug/ml [22]: 100%
- Activity (Danio rerio [23]): 6763 mm
- Efficacy (Danio rerio [24]): 79%
- Activity (Danio rerio [25]): Dose-dependent effect
- Activity (Danio rerio [26]): 53.3%
- Efficacy (Danio rerio [27]): -9.1%
- Activity [28]: Toxic
- Activity [29]: Toxic
- Activity (Mus musculus [30]): 0.1 U/mg
- Activity (Mus musculus [31]): 0.098 U/mg
- Drug metabolism [32]: Metabolite_Detected

Reference: ChEMBL document CHEMBL4680246, “Design, synthesis and biological evaluation of novel O-carbamoyl ferulamide derivatives as multi-target-directed ligands for the treatment of Alzheimer's disease” (Eur J Med Chem, 2020)
